Among the data in patent US10703748B2, “Diazanaphthalen-3-yl carboxamides and preparation and use thereof” (Samumed, LLC, priority 2017, dated 2020) are EC50 and inhibition values, retold here.

The test system of assay [1] is secreted cytokines TNFα, IL-6 and KC-GRO. As to the kind of experiment: Secreted cytokines in Lipopolysaccharide-stimulated BV-2 cells (Table 9 does not say which cytokine). The assay is classed as cell-based, mouse. The note with it: Mus musculus, BV-2, 5 h; read-out: EC50.
Description: BV-2 cells (mouse microglial cells) were cultured in 1:1 DMEM medium supplemented with 10% FBS, and 1% penicillin/streptomycin.
BV-2 cells are plated at 35,000 cells/well in a volume of 100 μl for at least 4 hours before compounds are added. […] Compounds were added to cells overnight. […] Supernatant is removed and saved for further cytokine detection. The original plates with seeded cells were tested for cytotoxicity by measure of adenosine triphosphate (ATP) release by adding CellTiter-Glo® diluted 1:4 in distilled water (G7573, Promega) and transferring lysed cells to a completely black 96-well plate to be read with the Cytation3. Supernatant was then diluted 1:2 with a diluent from V-PLEX cytokine Kit and directly tested for the secreted cytokines TNFα, IL-6 and KC-GRO using electrochemiluminescence (Meso Scale Discovery). The standard curve for each cytokine was used to convert the electrochemiluminescent signal into pg of protein per mL.
Assay [2] has as its system Tau phosphorylation at Ser396 (pSer396). The assay is described as follows: Tau phosphorylation at Ser396 (pSer396) in SH-SY5Y cells, ELISA / western blot.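 Also: decrease in pSer396 Tau measured in lysates of treated cells by colorimetric ELISA or chemiluminescent western blot, same pSer396 antibody for both.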 The note with it: Homo sapiens; SH-SY5Y cells, overnight (16-18 h); read-out: pSer396 Tau EC50. In kind it is cell-based, human.
Description: Two days before treatment, cells were seeded onto 96 well plates at 5×10^4 cells/well.
The above synthesized compounds were screened using the cell assay procedure to assess decrease Tau phosphorylation at Ser396 (pSer396) described below.
Cells were lysed with RIPA buffer complemented with phosphatase and protease inhibitors then lysates were spun down at 12,000 g for 10 min to remove any cellular debris.
The target of a further assay is DYRK1A kinase (Homo sapiens, UniProt Q13627). The assay is described as follows: DYRK1A kinase activity (Ser/Thr 18 peptide Z-lyte FRET assay).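 Also: kinase activity read as coumarin/fluorescein emission ratio after development step, with unphosphorylated and phosphorylated peptide forms setting 0% and 100% controls, values from dose-response curves.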 The note with it: recombinant DYRK1A, 30 μM ATP, one hour at room temperature. In kind it is biochemical.
A further assay deals with GSK3β kinase (Homo sapiens, UniProt P49841). The assay is described as follows: GSK3β kinase activity (Ser/Thr 09 peptide Z-lyte FRET assay). In kind it is biochemical. The note with it: recombinant kinase, 46 μM ATP, one hour at room temperature; read-out: EC50.
Assay [3] deals with SW480 colon carcinoma cells. As to the kind of experiment: Cell viability assay (CellTiter-Glo). The note with it: Homo sapiens; for EC50: SW480, 96 h; for inhibition at 10 µM: SW480, read-out: percent inhibition at 10 μM.
Description: Representative compounds were screened using the assay procedure to assess the effect on cell viability as described below.
SW480 colon carcinoma cells were transduced with a lentiviral vector expressing luciferase with a human Sp5 promoter consisting of a sequence of eight TCF/LEF binding sites. […] These stably transduced SW480 cells were expanded in cell culture and used for all further screening activities. Each compound was dissolved in DMSO as a 10 mM stock and used to prepare compound source plates.
For the Cell Viability Assays, the cells were plated at 2,000 cells/well in 384-well plates with a DMEM medium containing 1% fetal bovine serum, and 1% Penicillin-Streptomycin and incubated for four days hours at 37° C. and 5% CO2. Eight replicates of DMSO-treated cells served as controls and cells treated with compound were performed in duplicate.
After incubation, 10 μL of CellTiter-Glo (Promega) was added to each well allowed to incubate for approximately 12 minutes. This reagent “results in cell lysis and generation of a luminescent signal proportional to the amount of ATP present. The amount of ATP is directly proportional to the number of cells present in culture, in agreement with previous reports. The CellTiter-Glo Assay generates a “glow-type” luminescent signal, produced by the luciferase reaction (Promega.com)”.
Dose-response curves were generated and EC50 concentration values were calculated using non-linear regression curve fit in the GraphPad Prism (San Diego, Calif.) or Dotmatics' Studies Software (Bishops Stortford, UK).
The test system of assay [4] is Wnt-responsive Sp5-Luc reporter in SW480 colon carcinoma cells. The assay is described as follows: Screening assay for Wnt activity (Sp5-Luc reporter gene assay). The note with it: Homo sapiens, SW480. On the technique in general: In a reporter assay the amount or activity of a reporter protein is the signal.
Another assay relates to IL-6. The assay is described as follows: IL-6 inhibition in LPS-stimulated human peripheral blood mononuclear cells (HTRF). The note with it: Homo sapiens, PBMC; for EC50: 22 h; for inhibition at 10 µM: read-out: percentage in parentheses after EC50 >10. On the technique in general: Time-resolved FRET reads energy transfer from a long-lived donor to a nearby acceptor.
Assay [5] has as its system α-smooth muscle actin (aSMA) positive LL29 cells. As to the kind of experiment: Inhibition of the fibrotic process: αSMA staining in TGF-β1 treated LL29 fibroblasts from IPF patients. The note with it: Homo sapiens, Fibroblast; for EC50: 96 h; for inhibition at 10 µM: read-out: percentage in parentheses after EC50 >10.

Bounds are passed on as bounds.

Chain of GSK3β kinase (P49841 whole entry): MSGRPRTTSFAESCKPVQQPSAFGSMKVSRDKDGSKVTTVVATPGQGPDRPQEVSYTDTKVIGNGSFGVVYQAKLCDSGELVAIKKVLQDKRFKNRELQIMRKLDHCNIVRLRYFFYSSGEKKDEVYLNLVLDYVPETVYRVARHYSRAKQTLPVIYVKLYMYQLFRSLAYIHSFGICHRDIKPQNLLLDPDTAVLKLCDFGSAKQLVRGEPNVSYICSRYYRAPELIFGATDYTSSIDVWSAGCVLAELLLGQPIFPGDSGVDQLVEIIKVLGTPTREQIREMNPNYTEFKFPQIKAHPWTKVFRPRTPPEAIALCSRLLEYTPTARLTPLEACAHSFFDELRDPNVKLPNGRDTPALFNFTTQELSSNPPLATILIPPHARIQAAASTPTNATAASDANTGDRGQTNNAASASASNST

Consider `Cn1cc(-c2cc3cc(NC(=O)C4CC4)ncc3cn2)cn1` [Compound 3629, N-(6-(1-Methyl-1H-pyrazol-4-yl)-2,7-naphthyridin-3-yl) cyclopropanecarboxamide], for which the EC50 was found to be 5700 nM in assay [1]; 21 nM in assay [2]; 7 nM on DYRK1A kinase; 2 nM at GSK3β kinase; 951 nM in assay [3]; 396 nM in assay [4]. Besides, the values for the EC50 (with IL-6; in assay [5]) were 2760 nM and 97 nM, respectively.
With `Cn1cc(-c2cc3cc(NC(=O)C4CCN(CCC(F)(F)F)CC4)ncc3cn2)cn1` [Compound 3646, N-(6-(1-Methyl-1H-pyrazol-4-yl)-2,7-naphthyridin-3-yl)-1-(3,3,3-trifluoropropyl)piperidine-4-carboxamide], the 50% effective concentration (EC50) in assay [1] was over 10000 nM; in assay [2], 79 nM; at DYRK1A kinase, 2 nM; at GSK3β kinase, 4 nM; in assay [3], 9580 nM; in assay [4], 219 nM. Further, the values for the concentration giving a half-maximal response (EC50) (in the assay on IL-6; in assay [5]) were 9040 nM and over 10000 nM, respectively. Moreover, the inhibition at 10 µM in assay [5] is 12.9%.
Take `C[C@H]1CCCN1CC(=O)Nc1cc2cc(-c3cnn(C)c3)ncc2cn1` [Compound 3674, (S)—N-(6-(1-Methyl-1H-pyrazol-4-yl)-2,7-naphthyridin-3-yl)-2-(2-methylpyrrolidin-1-yl)acetamide]: the 50% effective concentration (EC50) in assay [1] came to 6800 nM; in assay [2], 192 nM; at DYRK1A kinase, 7 nM; at GSK3β kinase it was 21 nM; in assay [3], 6900 nM; in assay [4], 512 nM. The EC50 with IL-6 is over 10000 nM; in assay [5] it was 604 nM. In addition, the inhibition at 10 µM in the assay with IL-6 stood at 1.7%.
`CN(CC(=O)Nc1cc2cc(-c3cnn(C)c3)ncc2cn1)C1CCC1` [Compound 3683, 2-(Cyclobutyl(methyl)amino)-N-(6-(1-methyl-1H-pyrazol-4-yl)-2,7-naphthyridin-3-yl)acetamide]: the 50% effective concentration (EC50) in assay [1] was over 10000 nM; in assay [2], 179 nM; on DYRK1A kinase, 8 nM; at GSK3β kinase it was 10 nM; in assay [3] it was over 10000 nM; in assay [4], 603 nM. The concentration for a half-maximal effect (EC50) was over 10000 nM in the assay on IL-6 and 597 nM in assay [5]. The results for the inhibition at 10 µM (in assay [3]; in the assay on IL-6) were 38.8% and 4.6%, respectively.
Regarding `Cn1cc(-c2cc3cc(NC(=O)[C@H]4CCCN4)ncc3cn2)cn1` [Compound 3689, (R)—N-(6-(1-Methyl-1H-pyrazol-4-yl)-2,7-naphthyridin-3-yl)pyrrolidine-2-carboxamide], the EC50 in assay [1] was over 10000 nM; in assay [2], 156 nM; at DYRK1A kinase it was 71 nM; on GSK3β kinase it was 8 nM; in assay [3], over 10000 nM; in assay [4], 370 nM. Besides, the values for the EC50 (in the assay with IL-6; in assay [5]) were over 10000 nM and 893 nM, respectively. In addition, the inhibition at 10 µM in assay [3] came to 28.8%; in the assay on IL-6 it was 7.6%.
Regarding `CC(C(=O)Nc1cc2cc(-c3cnn(C)c3)ncc2cn1)N1CCCCC1` (stereo not shown) [Compound 3698, N-(6-(1-Methyl-1H-pyrazol-4-yl)-2,7-naphthyridin-3-yl)-2-(piperidin-1-yl) propanamide], the concentration giving a half-maximal response (EC50) in assay [1] stood at 4800 nM; in assay [2], 76 nM; on DYRK1A kinase, 64 nM; on GSK3β kinase it was 9 nM; in assay [3] it was 6900 nM; in assay [4] it was 288 nM. The half-maximal effective concentration (EC50) is over 10000 nM in the assay on IL-6 and 1070 nM in assay [5]. In addition, the inhibition at 10 µM in the assay with IL-6 amounted to 4.6%.
In the case of `Cn1cc(-c2cc3cc(NC(=O)C4CCN(S(C)(=O)=O)CC4)ncc3cn2)cn1` [Compound 3699, N-(6-(1-Methyl-1H-pyrazol-4-yl)-2,7-naphthyridin-3-yl)-1-(methylsulfonyl) piperidine-4-carboxamide], the half-maximal effective concentration (EC50) in assay [1] was over 10000 nM; in assay [2], 43 nM; on DYRK1A kinase, 2 nM; on GSK3β kinase, 6 nM; in assay [3], 6720 nM; in assay [4], 234 nM. Besides, the EC50 with IL-6 is over 10000 nM; in assay [5], 25 nM. Besides, the inhibition at 10 µM in the assay on IL-6 was 8.4%.
As for `Cn1cc(-c2cc3cc(NC(=O)CC4CNCCO4)ncc3cn2)cn1` (stereo not shown) [Compound 3714, N-(6-(1-Methyl-1H-pyrazol-4-yl)-2,7-naphthyridin-3-yl)-2-(morpholin-2-yl) acetamide], the EC50 in assay [1] came out at 1620 nM; in assay [2], 210 nM; on DYRK1A kinase it was 10 nM; at GSK3β kinase, 8 nM; in assay [3], 6020 nM; in assay [4] it was 845 nM. In addition, the concentration for a half-maximal effect (EC50) is 5700 nM in the assay with IL-6 and 1540 nM in assay [5].
On to `Cn1cc(-c2cc3cc(NC(=O)C4CCN(Cc5ncco5)CC4)ncc3cn2)cn1` [Compound 3723, N-(6-(1-Methyl-1H-pyrazol-4-yl)-2,7-naphthyridin-3-yl)-1-(oxazol-2-ylmethyl)piperidine-4-carboxamide], for which the half-maximal effective concentration (EC50) in assay [1] was 94 nM; in assay [2], 252 nM; on DYRK1A kinase it was 2 nM; at GSK3β kinase it was 10 nM; in assay [3], over 10000 nM; in assay [4], 842 nM. Also, the EC50 (in the assay on IL-6; in assay [5]) was over 10000 nM throughout. The inhibition at 10 µM in assay [3] was 43.7%; with IL-6 it was 2.8%; in assay [5], 9.1%.
For `CN1CCCN(CC(=O)Nc2cc3cc(-c4cnn(C)c4)ncc3cn2)CC1` [Compound 3733, 2-(4-Methyl-1,4-diazepan-1-yl)-N-(6-(1-methyl-1H-pyrazol-4-yl)-2,7-naphthyridin-3-yl)acetamide], the EC50 in assay [1] is 3700 nM; in assay [2], 227 nM; at DYRK1A kinase, 16 nM; on GSK3β kinase it was 43 nM; in assay [3], over 10000 nM; in assay [4] it was 515 nM. Moreover, the EC50 in the assay with IL-6 was over 10000 nM; in assay [5] it was 1830 nM. The results for the inhibition at 10 µM (in assay [3]; in the assay with IL-6) were 37.3% and 6.2%, respectively.
For `CN1CCC(Oc2ccc(C(=O)Nc3cc4cc(-c5cnn(C)c5)ncc4cn3)cc2)CC1` [Compound 3772, N-(6-(1-Methyl-1H-pyrazol-4-yl)-2,7-naphthyridin-3-yl)-4-((1-methylpiperidin-4-yl)oxy)benzamide], the EC50 was at least 10000 nM in assay [1]; 7280 nM in assay [2]; 8 nM at DYRK1A kinase; 390 nM on GSK3β kinase; 8160 nM in assay [3]; 221 nM in assay [4]. Also, the values for the EC50 (in the assay on IL-6; in assay [5]) were over 10000 nM and 1140 nM, respectively. Moreover, in the assay on IL-6, the inhibition at 10 µM was 10.6%.
`CN1CCN(Cc2cccc(C(=O)Nc3cc4cc(-c5cnn(C)c5)ncc4cn3)c2)CC1` [Compound 3799, N-(6-(1-Methyl-1H-pyrazol-4-yl)-2,7-naphthyridin-3-yl)-3-((4-methylpiperazin-1-yl)methyl)benzamide]: the EC50 came to 79 nM in assay [1]; 3640 nM in assay [2]; 12 nM on DYRK1A kinase; 243 nM on GSK3β kinase; 3660 nM in assay [3]; 2120 nM in assay [4]. Further, the figures for the EC50 (with IL-6; in assay [5]) were over 10000 nM and 2580 nM, respectively. Moreover, in the assay on IL-6, the inhibition at 10 µM came to 5.3%.
Turning to `Cn1cc(-c2cc3cc(NC(=O)CCc4ccccc4)ncc3cn2)cn1` [Compound 3821, N-(6-(1-Methyl-1H-pyrazol-4-yl)-2,7-naphthyridin-3-yl)-3-phenylpropanamide], the half-maximal effective concentration (EC50) was 244 nM in assay [1]; 29 nM in assay [2]; 7 nM on DYRK1A kinase; 1 nM at GSK3β kinase; 231 nM in assay [3]; 176 nM in assay [4]. In addition, the concentration for a half-maximal effect (EC50) in the assay with IL-6 came to 8410 nM; in assay [5], 313 nM.
As for `Cn1ncc(-c2cc3cc(NC(=O)C4CC5(C4)CN(CCF)C5)ncc3cn2)c1CN1CCCCC1` [Compound 3907, 2-(2-Fluoroethyl)-N-(6-(1-methyl-5-(piperidin-1-ylmethyl)-1H-pyrazol-4-yl)-2,7-naphthyridin-3-yl)-2-azaspiro[3.3]heptane-6-carboxamide], the EC50 was found to be 4700 nM in assay [1]; 367 nM in assay [2]; 48 nM on DYRK1A kinase; 39 nM at GSK3β kinase; 1300 nM in assay [3]; 361 nM in assay [4]. Besides, the figures for the EC50 (in the assay with IL-6; in assay [5]) were 8810 nM and 1820 nM, respectively.
Take `O=C(Nc1cc2cc(-c3cnn4c3CN(CCF)CC4)ncc2cn1)C1CCC(F)(F)CC1` [Compound 3944, 4,4-Difluoro-N-(6-(5-(2-fluoroethyl)-4,5,6,7-tetrahydropyrazolo[1,5-a]pyrazin-3-yl)-2,7-naphthyridin-3-yl)cyclohexane-1-carboxamide]: the EC50 in assay [1] was 471 nM; in assay [2], 428 nM; at DYRK1A kinase, 6 nM; on GSK3β kinase, 18 nM; in assay [3], 7300 nM; in assay [4] it was 962 nM. Moreover, the EC50 in the assay with IL-6 was over 10000 nM; in assay [5], 416 nM. Also, the inhibition at 10 µM with IL-6 came to 22.2%.

One may read the EC50 as the concentration that produces a half-maximal response.
